Legend:
Experiment in all cases: DiscoverX scanMAX binding assay
PIP5K2C = molecular target: T1, PIP5K2C (Homo sapiens, UniProt Q8TBX8); conditions: 1 μM
T1 construct: purchased Eurofins (radiometric) / Eurofins DiscoverX scanMAX / Reaction Biology / SignalChem
T1 sequence (Q8TBX8 1-421): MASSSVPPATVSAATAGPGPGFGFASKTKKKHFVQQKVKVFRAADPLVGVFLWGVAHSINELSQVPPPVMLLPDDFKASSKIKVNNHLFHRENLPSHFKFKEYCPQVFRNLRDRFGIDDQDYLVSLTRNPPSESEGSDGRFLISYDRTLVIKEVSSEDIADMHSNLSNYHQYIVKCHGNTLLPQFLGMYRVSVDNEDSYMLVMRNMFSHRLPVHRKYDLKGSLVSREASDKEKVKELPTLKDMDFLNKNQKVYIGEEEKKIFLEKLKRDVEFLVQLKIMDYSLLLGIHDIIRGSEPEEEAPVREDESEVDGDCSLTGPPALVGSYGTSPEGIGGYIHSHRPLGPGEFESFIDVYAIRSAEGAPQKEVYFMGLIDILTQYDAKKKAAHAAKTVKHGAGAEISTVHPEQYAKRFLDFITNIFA
Source text: (§1) This panel includes 403 wild-type (WT) human kinases but not TTBK1/2. […] Substantial overlap between the MRC and DiscoverX scanMAX kinase panels allows the comparison of results for the same kinases in two different assay formats (enzymatic versus binding, respectively) at the same concentration. Selectivity results are included in two columns within Table 1. […] The rightmost column converts this selectivity score into the number of kinases with a PoC < 10 in the scanMAX panel.
(§2) The Eurofins DiscoverX Corporation scanMAX assay platform was employed to assess the selectivity of specific analogs at a single concentration (1 µM). As described previously, this assay platform profiles a compound against 403 wild-type human kinases and delivers percent of control (PoC) values. These percent of control values are included in Table 1 and corresponding kinome tree diagrams as well as tables for each analog included in Fig. S1.

YSK4 = molecular target: T2, YSK4 (Homo sapiens, UniProt Q56UN5); conditions: 1 μM
T2 construct: purchased Eurofins (radiometric) / Eurofins DiscoverX scanMAX / Reaction Biology / SignalChem
T2 sequence (Q56UN5 1-1328): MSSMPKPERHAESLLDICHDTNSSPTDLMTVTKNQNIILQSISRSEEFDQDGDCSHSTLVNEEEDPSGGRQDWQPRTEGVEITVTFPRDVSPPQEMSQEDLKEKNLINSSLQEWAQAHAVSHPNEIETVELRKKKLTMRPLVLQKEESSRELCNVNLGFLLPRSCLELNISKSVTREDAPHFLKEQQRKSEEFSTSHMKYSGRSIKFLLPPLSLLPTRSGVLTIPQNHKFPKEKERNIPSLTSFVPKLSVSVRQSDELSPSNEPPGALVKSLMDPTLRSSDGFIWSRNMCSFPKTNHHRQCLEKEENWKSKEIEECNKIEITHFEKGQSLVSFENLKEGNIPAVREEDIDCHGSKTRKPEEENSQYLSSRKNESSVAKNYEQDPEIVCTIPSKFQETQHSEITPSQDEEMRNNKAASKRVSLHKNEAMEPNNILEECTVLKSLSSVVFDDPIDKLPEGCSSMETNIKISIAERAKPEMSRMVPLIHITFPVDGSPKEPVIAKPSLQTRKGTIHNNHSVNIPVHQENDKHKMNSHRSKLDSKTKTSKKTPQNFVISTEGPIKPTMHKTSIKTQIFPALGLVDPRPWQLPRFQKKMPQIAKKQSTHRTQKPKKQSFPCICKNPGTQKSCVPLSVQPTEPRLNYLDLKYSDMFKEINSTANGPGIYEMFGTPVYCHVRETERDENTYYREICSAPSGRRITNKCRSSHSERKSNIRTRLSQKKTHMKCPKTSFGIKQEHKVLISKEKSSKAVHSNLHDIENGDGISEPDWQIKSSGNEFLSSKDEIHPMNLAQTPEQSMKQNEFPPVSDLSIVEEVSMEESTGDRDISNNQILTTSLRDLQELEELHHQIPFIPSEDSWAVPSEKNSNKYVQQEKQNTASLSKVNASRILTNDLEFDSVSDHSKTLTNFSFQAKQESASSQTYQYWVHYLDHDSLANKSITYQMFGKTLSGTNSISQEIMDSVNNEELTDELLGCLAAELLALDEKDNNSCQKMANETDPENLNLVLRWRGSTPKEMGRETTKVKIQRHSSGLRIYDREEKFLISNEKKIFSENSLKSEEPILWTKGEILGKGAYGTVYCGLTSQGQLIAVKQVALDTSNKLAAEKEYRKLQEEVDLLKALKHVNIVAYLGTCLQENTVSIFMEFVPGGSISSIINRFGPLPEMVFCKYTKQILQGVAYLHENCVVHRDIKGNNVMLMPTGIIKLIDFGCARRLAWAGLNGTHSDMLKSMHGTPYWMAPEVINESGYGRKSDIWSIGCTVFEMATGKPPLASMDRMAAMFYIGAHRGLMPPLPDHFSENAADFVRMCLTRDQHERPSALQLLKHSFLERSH
Source text: as §1, §2

PKNB(M.tuberculosis) = molecular target: T3, PKNB(M.tuberculosis) (Mycobacterium tuberculosis, UniProt P9WI81); conditions: for PKNB(M.tuberculosis) % control at 1000nM: 1 μM
T3 construct: purchased Eurofins (radiometric) / Eurofins DiscoverX scanMAX / Reaction Biology / SignalChem
Source text: as §1, §2

MAP4K2 = molecular target: T4, MAP4K2 (Homo sapiens, UniProt Q12851); conditions: for MAP4K2 % control at 1000nM: 1 μM
T4 construct: purchased Eurofins (radiometric) / Eurofins DiscoverX scanMAX / Reaction Biology / SignalChem
T4 sequence (Q12851 1-820): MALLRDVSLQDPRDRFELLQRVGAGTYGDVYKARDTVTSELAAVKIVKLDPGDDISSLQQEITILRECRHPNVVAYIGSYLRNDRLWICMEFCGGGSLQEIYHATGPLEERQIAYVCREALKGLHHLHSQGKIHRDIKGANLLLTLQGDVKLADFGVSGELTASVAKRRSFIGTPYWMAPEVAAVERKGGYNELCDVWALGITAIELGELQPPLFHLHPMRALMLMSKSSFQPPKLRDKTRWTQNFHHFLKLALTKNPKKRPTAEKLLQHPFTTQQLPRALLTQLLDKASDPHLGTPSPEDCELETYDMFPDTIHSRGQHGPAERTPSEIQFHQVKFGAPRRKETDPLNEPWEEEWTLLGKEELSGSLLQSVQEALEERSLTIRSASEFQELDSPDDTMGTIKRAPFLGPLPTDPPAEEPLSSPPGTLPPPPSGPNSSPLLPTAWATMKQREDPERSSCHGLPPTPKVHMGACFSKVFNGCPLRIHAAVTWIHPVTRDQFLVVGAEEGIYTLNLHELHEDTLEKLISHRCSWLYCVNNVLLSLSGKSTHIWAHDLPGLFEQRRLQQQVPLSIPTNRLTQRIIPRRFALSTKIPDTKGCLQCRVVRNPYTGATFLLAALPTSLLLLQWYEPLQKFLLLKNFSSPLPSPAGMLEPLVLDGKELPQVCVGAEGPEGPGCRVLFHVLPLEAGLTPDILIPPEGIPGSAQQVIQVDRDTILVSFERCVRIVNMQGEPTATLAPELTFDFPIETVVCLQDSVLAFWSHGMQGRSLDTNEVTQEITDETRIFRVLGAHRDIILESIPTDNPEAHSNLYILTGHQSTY
Source text: as §1, §2

T3 sequence (P9WI81 whole entry): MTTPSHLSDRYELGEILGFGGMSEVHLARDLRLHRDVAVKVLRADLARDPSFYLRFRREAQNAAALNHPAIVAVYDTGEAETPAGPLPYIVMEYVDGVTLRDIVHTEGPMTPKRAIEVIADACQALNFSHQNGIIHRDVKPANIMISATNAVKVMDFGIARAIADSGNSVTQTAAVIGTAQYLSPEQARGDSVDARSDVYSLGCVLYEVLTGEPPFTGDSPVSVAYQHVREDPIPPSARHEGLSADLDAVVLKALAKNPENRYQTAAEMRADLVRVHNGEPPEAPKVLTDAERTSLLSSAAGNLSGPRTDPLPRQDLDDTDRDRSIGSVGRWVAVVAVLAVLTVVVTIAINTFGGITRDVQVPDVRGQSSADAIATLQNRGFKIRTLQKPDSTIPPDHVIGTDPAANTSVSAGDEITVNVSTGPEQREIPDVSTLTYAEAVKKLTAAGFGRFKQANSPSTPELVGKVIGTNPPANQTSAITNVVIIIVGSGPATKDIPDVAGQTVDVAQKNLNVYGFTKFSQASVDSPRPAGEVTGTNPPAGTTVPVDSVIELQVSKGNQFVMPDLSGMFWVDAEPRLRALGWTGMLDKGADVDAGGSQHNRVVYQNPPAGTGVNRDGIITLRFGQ

| SMILES | PIP5K2C (PI5P4Kγ) % control at 1000nM / DiscoverX PoC value (PIP5K2C) [% control] | YSK4 % control at 1000nM / DiscoverX PoC value (YSK4) [% control] | kinase binding, % of control at 1 µM (PKNB(M.tuberculosis); read-out: PKNB(M.tuberculosis) % control at 1000nM) [%] | percent of control (binding) at 1 µM (MAP4K2; read-out: MAP4K2 % control at 1000nM) [%] | PKNB(M.tuberculosis) % control at 1000nM (PKNB(M.tuberculosis)) [% control] | MAP4K2 % control at 1000nM (MAP4K2) [% control] |
| --- | --- | --- | --- | --- | --- | --- |
| CC(C)(O)C#Cc1ccc2[nH]c3c(c2c1)-c1nc(N)ncc1CCC3 [AMG28, reference compound] | 3.1 | 0 | 0.1 | 1.3 | – | – |
| CC(C)(O)C#Cc1ccc2[nH]cc(-c3ccnc(N)n3)c2c1 [Compound 3] | 0.2 | 0 | – | – | 0.9 | 1.6 |
| CC(C)(O)C#Cc1ccc2[nH]c3c(c2c1)-c1nc(N)ncc1CC3 [Compound 1] | 0 | 0 | – | – | 1.7 | 2 |

Source: PMC10104807, “Modulation of tau tubulin kinases (TTBK1 and TTBK2) impacts ciliogenesis” (Scientific Reports, 2023)
